Reference: the NIST ThermoML archive (doi:10.1021/je050182i)
Several values for one entry are separate records, joined by “and”; a condition that tells them apart may be missing. Identical values can stand only once.

Details: Liquid

CCCCCCCCCCCCCCCCCCCCCCCCCCCCCC [triacontane]
Details	vapor or sublimation pressure [kPa]
432.36 K	0.00115
432.37 K	0.00113
442.48 K	0.00233
452.32 K	0.00457
452.34 K	0.00451

CCCCCCCCCCCCCCCCCCCCC [heneicosane]
Details	vapor or sublimation pressure [kPa]
351.54 K	0.000396
361.52 K	0.000971
371.42 K	0.0022
381.65 K	0.00498
391.86 K	0.0106
402.05 K	0.0213
422.19 K	0.0751
432.27 K	0.133
442.3 K	0.228
452.22 K	0.378
461.96 K	0.611

CCCCCCCCCCCCCCCCCCCCCCCCCCC [heptacosane]
Details	vapor or sublimation pressure
401.68 K	0.000592 kPa
401.69 K	0.00059 kPa
411.78 K	0.00129 kPa
411.81 K	0.0013 kPa
421.93 K	0.00269 kPa
421.95 K	0.00272 kPa
432.03 K	0.00556 kPa
442.18 K	0.011 kPa
452.27 K	0.0214 kPa
462.27 K	0.0405 kPa and 0.0401 kPa

CCCCCCCCCCCCCCCCCCCCCCCCC [pentacosane]
Details	vapor or sublimation pressure
381.69 K	0.000331 kPa
391.91 K	0.000783 kPa
402.03 K	0.00178 kPa
411.75 K	0.00383 kPa
411.78 K	0.00383 kPa
422.02 K	0.00802 kPa
432.21 K	0.0158 kPa
442.33 K	0.0296 kPa
442.34 K	0.0299 kPa
452.24 K	0.0541 kPa
452.25 K	0.0534 kPa
461.95 K	0.0926 kPa
461.98 K	0.0923 kPa and 0.0938 kPa

CCCCCCCCCCCCCCCCCCCCCCCCCCCCC [nonacosane]
Details	vapor or sublimation pressure
422.1 K	0.00097 kPa and 0.000971 kPa
432.12 K	0.00206 kPa
442.17 K	0.00421 kPa
442.19 K	0.00417 kPa
452.2 K	0.00824 kPa
452.23 K	0.00819 kPa

CCCCCCCCCCCCCCCCCCCCCCC [tricosane]
Details	vapor or sublimation pressure [kPa]
412.18 K	0.0129
422.26 K	0.0248
422.29 K	0.0247
432.34 K	0.0461
442.33 K	0.0839
452.22 K	0.143
461.99 K	0.242
